The subject of the first data set is ABUTH: velvetleaf (Abutilon theophrasti). Briefly: Post-Emergent Test I herbicidal activity. The class given is in vivo. The following applies: Abutilon theophrasti, post-emergence, 336 h, Table 3, 70 g ai/ha, read-out: Visual Growth Reduction (%)-14 Days after Application ABUTH. In short, it runs like this:
(§1)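 Plants grown in greenhouse to first/second true leaf. Compound formulated in acetone:DMSO 97:3 then diluted into crop-oil/surfactant aqueous mix; serial twofold rates. Sprayed at 187 L/ha, 43 cm above canopy; solvent-blank controls. Scored visually at 14 d; probit fit for GR values.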
Turning to `COC(=O)c1nc(-c2cc(F)c(Cl)cc2F)c(F)c(N)c1OC` [Compound 39], the pest or weed control at 70 g/ha worked out at 80%.
Still for that read-out and setting: for `COc1c(C(=O)O)nc(-c2ccc(I)c(F)c2F)c(F)c1N` [Compound 28] the value was 70%.

Still in this data set, the particulars now being: Abutilon theophrasti, post-emergence, 336 h, Table 3, 140 g ai/ha, read-out: Visual Growth Reduction (%)-14 Days after Application ABUTH.
For `COC(=O)c1nc(-c2ccc(Cl)c(F)c2)c(F)c(N)c1OC` [Compound 32], the pest or weed control at 140 g/ha worked out at 95%.
For the compound `CSc1c(C(=O)O)nc(-c2ccc(Cl)c(F)c2)c(F)c1N` [Compound 72], the pest or weed control at 140 g/ha was determined as 80%.
Turning to `COC(=O)c1nc(-c2ccc(C(F)(F)F)cc2)c(F)c(N)c1OC` [Compound 35], the pest or weed control at 140 g/ha was 75%.
As for `COC(=O)c1nc(-c2ccc(C(F)(F)F)c(F)c2F)c(F)c(N)c1OC` [Compound 38], the pest or weed control at 140 g/ha worked out at 85%.
For `COC(=O)c1nc(-c2ccc(Cl)cc2)c(F)c(N)c1OC` [Compound 31, methyl 4-amino-6-(4-chlorophenyl)-5-fluoro-3-methoxypicolinate], the pest or weed control at 140 g/ha was 100%.

For a further data set, the system named is CHEAL: lambsquarters (Chenopodium album). As to the kind of experiment: Post-Emergent Test I herbicidal activity. The class given is in vivo. The following applies: Chenopodium album, post-emergence, 336 h, Table 3, 70 g ai/ha, read-out: Visual Growth Reduction (%)-14 Days after Application CHEAL. In a few lines:
as §1
Take `COC(=O)c1nc(-c2cc(F)c(Cl)cc2F)c(F)c(N)c1OC` [Compound 39]: the pest or weed control at 70 g/ha stood at 100%.
As for `COc1c(C(=O)O)nc(-c2ccc(I)c(F)c2F)c(F)c1N` [Compound 28], the pest or weed control at 70 g/ha came out at 100%.

Still in this data set, the particulars now being: Chenopodium album, post-emergence, 336 h, Table 3, 140 g ai/ha, read-out: Visual Growth Reduction (%)-14 Days after Application CHEAL.
As for `COC(=O)c1nc(-c2ccc(Cl)c(F)c2)c(F)c(N)c1OC` [Compound 32], the pest or weed control at 140 g/ha amounted to 100%.
On to `CSc1c(C(=O)O)nc(-c2ccc(Cl)c(F)c2)c(F)c1N` [Compound 72], for which the pest or weed control at 140 g/ha worked out at 100%.
On the same count and under the same terms, for `COC(=O)c1nc(-c2ccc(C(F)(F)F)cc2)c(F)c(N)c1OC` [Compound 35] the value was 100%; for `COC(=O)c1nc(-c2ccc(C(F)(F)F)c(F)c2F)c(F)c(N)c1OC` [Compound 38], 90%.
Same read-out and setting: in the case of `COC(=O)c1nc(-c2ccc(Cl)cc2)c(F)c(N)c1OC` [Compound 31, methyl 4-amino-6-(4-chlorophenyl)-5-fluoro-3-methoxypicolinate] it was 100%.

The next data set has as its system CYPES: yellow nutsedge (Cyperus esculentus). Briefly: Post-Emergent Test I herbicidal activity. The class given is in vivo. The following applies: post-emergence, 336 h, Table 3, 70 g ai/ha, read-out: Visual Growth Reduction (%)-14 Days after Application CYPES. In short, it runs like this:
as §1
With `COC(=O)c1nc(-c2cc(F)c(Cl)cc2F)c(F)c(N)c1OC` [Compound 39], the pest or weed control at 70 g/ha worked out at 100%.
On to `COc1c(C(=O)O)nc(-c2ccc(I)c(F)c2F)c(F)c1N` [Compound 28], for which the pest or weed control at 70 g/ha is 40%.

Still in this data set, the particulars now being: post-emergence, 336 h, Table 3, 140 g ai/ha, read-out: Visual Growth Reduction (%)-14 Days after Application CYPES.
For the compound `COC(=O)c1nc(-c2ccc(Cl)c(F)c2)c(F)c(N)c1OC` [Compound 32], the pest or weed control at 140 g/ha amounted to 100%.
Take `CSc1c(C(=O)O)nc(-c2ccc(Cl)c(F)c2)c(F)c1N` [Compound 72]: the pest or weed control at 140 g/ha turned out to be 90%.
With `COC(=O)c1nc(-c2ccc(C(F)(F)F)cc2)c(F)c(N)c1OC` [Compound 35], the pest or weed control at 140 g/ha was determined as 100%.
As to `COC(=O)c1nc(-c2ccc(C(F)(F)F)c(F)c2F)c(F)c(N)c1OC` [Compound 38], the pest or weed control at 140 g/ha is 50%.
Regarding `COC(=O)c1nc(-c2ccc(Cl)cc2)c(F)c(N)c1OC` [Compound 31, methyl 4-amino-6-(4-chlorophenyl)-5-fluoro-3-methoxypicolinate], the pest or weed control at 140 g/ha was determined as 100%.

The test system of another data set is ECHCG: barnyardgrass (Echinochloa crus-galli). As to the kind of experiment: Post-Emergent Test I herbicidal activity. The class given is in vivo. The following applies: post-emergence, 336 h, Table 3, 70 g ai/ha, read-out: Visual Growth Reduction (%)-14 Days after Application ECHCG. In short, it runs like this:
as §1
Consider `COC(=O)c1nc(-c2cc(F)c(Cl)cc2F)c(F)c(N)c1OC` [Compound 39], for which the pest or weed control at 70 g/ha was 80%.
For `COc1c(C(=O)O)nc(-c2ccc(I)c(F)c2F)c(F)c1N` [Compound 28], the pest or weed control at 70 g/ha stood at 80%.

The data set is the same for the next values; noted with them: post-emergence, 336 h, Table 3, 140 g ai/ha, read-out: Visual Growth Reduction (%)-14 Days after Application ECHCG.
For `COC(=O)c1nc(-c2ccc(Cl)c(F)c2)c(F)c(N)c1OC` [Compound 32], the pest or weed control at 140 g/ha came to 90%.
With `CSc1c(C(=O)O)nc(-c2ccc(Cl)c(F)c2)c(F)c1N` [Compound 72], the pest or weed control at 140 g/ha is 0%.
The same measure, in the same setting: in the case of `COC(=O)c1nc(-c2ccc(C(F)(F)F)cc2)c(F)c(N)c1OC` [Compound 35] it was 80%.
For `COC(=O)c1nc(-c2ccc(C(F)(F)F)c(F)c2F)c(F)c(N)c1OC` [Compound 38], the pest or weed control at 140 g/ha worked out at 10%.
On to `COC(=O)c1nc(-c2ccc(Cl)cc2)c(F)c(N)c1OC` [Compound 31, methyl 4-amino-6-(4-chlorophenyl)-5-fluoro-3-methoxypicolinate], for which the pest or weed control at 140 g/ha came out at 95%.

Another data set has as its system EPHHL: wild poinsettia (Euphorbia heterophylla). Briefly: Post-Emergent Test I herbicidal activity. The class given is in vivo. The following applies: post-emergence, 336 h, Table 3, 70 g ai/ha, read-out: Visual Growth Reduction (%)-14 Days after Application EPHHL. In short, it runs like this: as §1
For `COC(=O)c1nc(-c2cc(F)c(Cl)cc2F)c(F)c(N)c1OC` [Compound 39], the pest or weed control at 70 g/ha was found to be 100%.
For the compound `COc1c(C(=O)O)nc(-c2ccc(I)c(F)c2F)c(F)c1N` [Compound 28], the pest or weed control at 70 g/ha is 100%.

Still in this data set, the particulars now being: post-emergence, 336 h, Table 3, 140 g ai/ha, read-out: Visual Growth Reduction (%)-14 Days after Application EPHHL.
With `COC(=O)c1nc(-c2ccc(Cl)c(F)c2)c(F)c(N)c1OC` [Compound 32], the pest or weed control at 140 g/ha amounted to 100%.
Still for that read-out and setting: for `CSc1c(C(=O)O)nc(-c2ccc(Cl)c(F)c2)c(F)c1N` [Compound 72] the value was 100%.
In the case of `COC(=O)c1nc(-c2ccc(C(F)(F)F)cc2)c(F)c(N)c1OC` [Compound 35], the pest or weed control at 140 g/ha stood at 100%.
Regarding `COC(=O)c1nc(-c2ccc(C(F)(F)F)c(F)c2F)c(F)c(N)c1OC` [Compound 38], the pest or weed control at 140 g/ha is 100%.
Regarding `COC(=O)c1nc(-c2ccc(Cl)cc2)c(F)c(N)c1OC` [Compound 31, methyl 4-amino-6-(4-chlorophenyl)-5-fluoro-3-methoxypicolinate], the pest or weed control at 140 g/ha was 100%.

For another data set, the system named is ORYSA: rice (Oryza sativa). As to the kind of experiment: Post-Emergent Test I herbicidal activity. The class given is in vivo. The following applies: post-emergence, 336 h, Table 3, 70 g ai/ha, read-out: Visual Growth Reduction (%)-14 Days after Application ORYSA. In short, it runs like this: as §1
As to `COC(=O)c1nc(-c2cc(F)c(Cl)cc2F)c(F)c(N)c1OC` [Compound 39], the pest or weed control at 70 g/ha was found to be 0%.
Regarding `COc1c(C(=O)O)nc(-c2ccc(I)c(F)c2F)c(F)c1N` [Compound 28], the pest or weed control at 70 g/ha was 5%.

The data set is the same for the next values; noted with them: post-emergence, 336 h, Table 3, 140 g ai/ha, read-out: Visual Growth Reduction (%)-14 Days after Application ORYSA.
For `COC(=O)c1nc(-c2ccc(Cl)c(F)c2)c(F)c(N)c1OC` [Compound 32], the pest or weed control at 140 g/ha stood at 0%.
The same measure, in the same setting: in the case of `CSc1c(C(=O)O)nc(-c2ccc(Cl)c(F)c2)c(F)c1N` [Compound 72] it was 30%; in that of `COC(=O)c1nc(-c2ccc(C(F)(F)F)cc2)c(F)c(N)c1OC` [Compound 35], 0%; in that of `COC(=O)c1nc(-c2ccc(C(F)(F)F)c(F)c2F)c(F)c(N)c1OC` [Compound 38], 0%.
With `COC(=O)c1nc(-c2ccc(Cl)cc2)c(F)c(N)c1OC` [Compound 31, methyl 4-amino-6-(4-chlorophenyl)-5-fluoro-3-methoxypicolinate], the pest or weed control at 140 g/ha is 15%.

Another data set concerns ZEAMX: corn (Zea mays). As to the kind of experiment: Post-Emergent Test I herbicidal activity. The following applies: Zea mays, post-emergence, 336 h, Table 3, 70 g ai/ha, read-out: Visual Growth Reduction (%)-14 Days after Application ZEAMX. The class given is in vivo. In short, it runs like this: as §1
`COC(=O)c1nc(-c2cc(F)c(Cl)cc2F)c(F)c(N)c1OC` [Compound 39]: the pest or weed control at 70 g/ha worked out at 75%.
For `COc1c(C(=O)O)nc(-c2ccc(I)c(F)c2F)c(F)c1N` [Compound 28], the pest or weed control at 70 g/ha was determined as 70%.

The data set is the same for the next values; noted with them: Zea mays, post-emergence, 336 h, Table 3, 140 g ai/ha, read-out: Visual Growth Reduction (%)-14 Days after Application ZEAMX.
For `COC(=O)c1nc(-c2ccc(Cl)c(F)c2)c(F)c(N)c1OC` [Compound 32], the pest or weed control at 140 g/ha turned out to be 75%.
Same read-out and setting: for `CSc1c(C(=O)O)nc(-c2ccc(Cl)c(F)c2)c(F)c1N` [Compound 72] the value was 60%; for `COC(=O)c1nc(-c2ccc(C(F)(F)F)cc2)c(F)c(N)c1OC` [Compound 35], 70%.
For the compound `COC(=O)c1nc(-c2ccc(C(F)(F)F)c(F)c2F)c(F)c(N)c1OC` [Compound 38], the pest or weed control at 140 g/ha was 75%.
Still for that read-out and setting: in the case of `COC(=O)c1nc(-c2ccc(Cl)cc2)c(F)c(N)c1OC` [Compound 31, methyl 4-amino-6-(4-chlorophenyl)-5-fluoro-3-methoxypicolinate] it was 85%.

Test system in a further data set: not given
Assay: not given
Conditions: not given
As a reminder, the melting point is the temperature, or range, at which the solid turns liquid. As to `COC(=O)c1nc(-c2ccc(Cl)c(F)c2)c(F)c(N)c1OC` [Compound 32], the melting point was 109 to 110 °C.
On the same count and under the same terms, for `CSc1c(C(=O)O)nc(-c2ccc(Cl)c(F)c2)c(F)c1N` [Compound 72] the value was 168 to 170 °C; for `COC(=O)c1nc(-c2ccc(C(F)(F)F)cc2)c(F)c(N)c1OC` [Compound 35], 97 to 99 °C.
Still for that read-out and setting: in the case of `COC(=O)c1nc(-c2ccc(C(F)(F)F)c(F)c2F)c(F)c(N)c1OC` [Compound 38] it was 139 to 141 °C; in that of `COC(=O)c1nc(-c2cc(F)c(Cl)cc2F)c(F)c(N)c1OC` [Compound 39], 120 to 123 °C; in that of `COC(=O)c1nc(-c2ccc(Cl)cc2)c(F)c(N)c1OC` [Compound 31, methyl 4-amino-6-(4-chlorophenyl)-5-fluoro-3-methoxypicolinate], 93 to 94 °C.
Consider `COc1c(C(=O)O)nc(-c2ccc(I)c(F)c2F)c(F)c1N` [Compound 28], for which the melting point lay within 145 to 147 °C.

For the origin of these results see patent US9518018B2, “3-alkoxy, thioalkyl and amino-4-amino-6-(substituted)picolinates and their use as herbicides” (Dow AgroSciences LLC, priority 2011, dated 2016).
